This passage reports IC50 results from patent US20250002487A1, “HETEROCYCLIC COMPOUNDS AND USES THEREOF” (Ventus Therapeutics U.S., Inc., priority 2021, published 2025).

By IC50 is commonly meant the midpoint of a concentration-inhibition curve.

A value given as a limit tells only on which side of the number the result lay.

Sequence of human-cGAS (h-cGAS) (Q8N884 whole entry): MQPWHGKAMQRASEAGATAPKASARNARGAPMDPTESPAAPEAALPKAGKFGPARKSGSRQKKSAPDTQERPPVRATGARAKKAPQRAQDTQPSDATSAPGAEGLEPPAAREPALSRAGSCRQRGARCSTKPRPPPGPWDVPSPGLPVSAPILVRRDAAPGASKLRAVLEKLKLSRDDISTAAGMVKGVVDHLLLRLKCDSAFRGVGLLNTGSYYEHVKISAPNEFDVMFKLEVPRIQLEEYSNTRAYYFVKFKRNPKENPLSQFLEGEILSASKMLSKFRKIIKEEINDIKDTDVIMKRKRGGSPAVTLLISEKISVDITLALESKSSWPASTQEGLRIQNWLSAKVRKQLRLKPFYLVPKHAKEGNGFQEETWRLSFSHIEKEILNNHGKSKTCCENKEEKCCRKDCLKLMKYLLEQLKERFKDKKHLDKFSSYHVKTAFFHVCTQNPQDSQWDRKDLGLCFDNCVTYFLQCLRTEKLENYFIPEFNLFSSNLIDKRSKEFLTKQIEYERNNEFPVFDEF

For the experiment, the target named is human-cGAS (h-cGAS) (Homo sapiens, UniProt Q8N884). Put plainly: hcGAS Kinase-Glo Assay. It is filed as biochemical. To be noted: 40 nM h-cGAS, 100 μM ATP, 100 μM GTP, 25 nM dsDNA, 3 h incubation, read-out: hcGAS potency IC50. The gist of the method:
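IC50 values come from a luminescence-based Kinase-Glo measurement on human cGAS. Conditions follow the Lama et al. 2019 method with minor modifications.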
Background: Kinase-Glo measures the ATP left after a reaction by luminescence.
With `O=C(Nc1nnc(-c2c[nH]cn2)s1)c1onc2ccccc12` [Compound 129, N-[5-(1H-imidazol-4-yl)-1,3,4-thiadiazol-2-yl]-2,1-benzoxazole-3-carboxamide], the IC50 is not below 1000 nM.

Regarding `O=C(Nc1nnc(-c2ccccc2Cl)s1)c1c[nH]c(=O)o1` [Compound 61, N-(5-(2-chlorophenyl)-1,3,4-thiadiazol-2-yl)-2-oxo-2,3-dihydrooxazole-5-carboxamide], the IC50 was in the range of 100 to 500 nM. Consider `CSc1nnc(NC(=O)c2onc3c2ccc2cnccc23)s1` [Compound 273, N-(5-(methylthio)-1,3,4-thiadiazol-2-yl)isoxazolo[3,4-f]isoquinoline-3-carboxamide], for which the half-maximal inhibitory concentration (IC50) was not below 1000 nM. On to `CSc1nnc(NC(=O)c2onc3ccc(Nc4ccccc4)cc23)s1` [Compound 162, N-(5-(methylthio)-1,3,4-thiadiazol-2-yl)-5-(phenylamino)benzo[c]isoxazole-3-carboxamide], for which the IC50 fell in the range of 500 to 1000 nM. On to `O=C(Nc1nnc(-c2ccccc2Cl)s1)c1cc(-c2ncccn2)no1` [Compound 154, N-(5-(2-Chlorophenyl)-1,3,4-thiadiazol-2-yl)-3-(pyrimidin-2-yl)isoxazole-5-carboxamide], for which the IC50 was in the range of 100 to 500 nM. For `CSc1nnc(NC(=O)c2nnc3n2CCN(C(=O)OC(C)(C)C)C3)s1` [Compound 98, tert-butyl 3-{[5-(methylsulfanyl)-1,3,4-thiadiazol-2-yl]carbamoyl}-5H,6H,8H-[1,2,4]triazolo[4,3-a]pyrazine-7-carboxylate], the IC50 is not below 1000 nM. In the case of `CSc1nnc(NC(=O)c2cc(-c3ccccc3)c(C)c(=O)o2)s1` [Compound 203, 3-methyl-N-(5-(methylthio)-1,3,4-thiadiazol-2-yl)-2-oxo-4-phenyl-2H-pyran-6-carboxamide] it was 100 to 500 nM.

As to `CSc1nnc(NC(=O)c2onc3ccc(CN4CC[C@@H](O)[C@H](O)C4)cc23)s1` (racemic) [rac-183, 5-((3,4-rac-trans-dihydroxypiperidin-1-yl)methyl)-N-(5-(methylthio)-1,3,4-thiadiazol-2-yl)benzo[c]isoxazole-3-carboxamide], the IC50 is not below 1000 nM. On to `COCCNC(=O)c1cc(C(=O)Nc2nnc(-c3ccccc3Cl)s2)on1` [Compound 88, N5-(5-(2-chlorophenyl)-1,3,4-thiadiazol-2-yl)-N3-(2-methoxyethyl)isoxazole-3,5-dicarboxamide], for which the IC50 fell in the range of 500 to 1000 nM. In the case of `O=C(Nc1nnc(-c2ncccn2)s1)c1onc2ccccc12` [Compound 148, N-(5-(pyrimidin-2-yl)-1,3,4-thiadiazol-2-yl)benzo[c]isoxazole-3-carboxamide] it was not below 1000 nM; in that of `CCSc1nnc(NC(=O)c2onc3ccccc23)s1` [Compound 70, N-(5-(ethylthio)-1,3,4-thiadiazol-2-yl)benzo[c]isoxazole-3-carboxamide], not below 1000 nM. As for `CSc1nnc(NC(=O)c2cc(C3CCOCC3)no2)s1` [Compound 80, N-(5-(methylthio)-1,3,4-thiadiazol-2-yl)-3-(tetrahydro-2H-pyran-4-yl)isoxazole-5-carboxamide], the IC50 lay within 500 to 1000 nM.

On to `CSc1nnc(NC(=O)c2noc(-c3ccccn3)n2)s1` [Compound 104, N-[5-(methylsulfanyl)-1,3,4-thiadiazol-2-yl]-5-(132yridine-2-yl)-1,2,4-oxadiazole-3-carboxamide], for which the IC50 lay in the range of 500 to 1000 nM.

Take `COc1ccc(Cc2ccc3noc(C(=O)Nc4nnc(SC)s4)c3c2)cc1O` [Compound 187, 5-(3-hydroxy-4-methoxybenzyl)-N-(5-(methylthio)-1,3,4-thiadiazol-2-yl)benzo[c]isoxazole-3-carboxamide]: the IC50 is not below 1000 nM. Turning to `CSc1nnc(NC(=O)c2nnc(N3CCNC(=O)C3)o2)s1` [Compound 124, N-(5-(methylthio)-1,3,4-thiadiazol-2-yl)-5-(3-oxopiperazin-1-yl)-1,3,4-oxadiazole-2-carboxamide], the IC50 was not below 1000 nM. Turning to `CSc1nnc(NC(=O)c2cc(-c3ccccc3F)cc(=O)o2)s1` [Compound 237, 4-(2-fluorophenyl)-N-(5-methylsulfanyl-1,3,4-thiadiazol-2-yl)-6-oxo-pyran-2-carboxamide], the IC50 is 100 to 500 nM. Turning to `CSc1nnc(NC(=O)c2cc(-c3ccccc3F)no2)s1` [Compound 217, 3-(2-fluorophenyl)-N-(5-(methylthio)-1,3,4-thiadiazol-2-yl)isoxazole-5-carboxamide], the IC50 is 100 to 500 nM. The figure for `CSc1nnc(NC(=O)c2onc3ccccc23)s1` [Compound 79, N-(5-(methylthio)-1,3,4-thiadiazol-2-yl)benzo[c]isoxazole-3-carboxamide] is 500 to 1000 nM; for `CSc1nnc(NC(=O)c2cc(-c3ccccc3-c3ccccc3)cc(=O)o2)s1` [Compound 182, 4-([1,1′-biphenyl]-2-yl)-N-(5-(methylthio)-1,3,4-thiadiazol-2-yl)-2-oxo-2H-pyran-6-carboxamide] it is 500 to 1000 nM. The figure for `CSc1nnc(NC(=O)c2cn(Cc3ccccc3)nn2)s1` [Compound 42, 1-benzyl-N-(5-(methylthio)-1,3,4-thiadiazol-2-yl)-1H-1,2,3-triazole-4-carboxamide] is not below 1000 nM; for `CSc1nnc(NC(=O)c2cc(-c3cccc(F)c3)no2)s1` [Compound 211, 3-(3-fluorophenyl)-N-[5-(methylsulfanyl)-1,3,4-thiadiazol-2-yl]-1,2-oxazole-5-carboxamide] it is 500 to 1000 nM; for `Cn1nccc1-c1nnc(NC(=O)c2onc3ccccc23)s1` [Compound 146, N-(5-(1-methyl-1H-pyrazol-5-yl)-1,3,4-thiadiazol-2-yl)benzo[c]isoxazole-3-carboxamide] it is not below 1000 nM.

Regarding `CSc1nnc(NC(=O)c2cc(-c3cccc(Cl)c3)cc(=O)o2)s1` [Compound 240, 4-(3-chlorophenyl)-N-(5-methylsulfanyl-1,3,4-thiadiazol-2-yl)-6-oxo-pyran-2-carboxamide], the IC50 was 100 to 500 nM. For `CC(=O)Nc1cc(C(=O)Nc2nnc(-c3ccccc3Cl)s2)on1` [Compound 5, 3-acetamido-N-(5-(2-chlorophenyl)-1,3,4-thiadiazol-2-yl)isoxazole-5-carboxamide], the IC50 was 100 to 500 nM.

In the case of `O=C(Nc1nnc(-c2ccccc2Cl)s1)c1cc(-c2ncc(F)cn2)no1` [Compound 156, N-(5-(2-Chlorophenyl)-1,3,4-thiadiazol-2-yl)-3-(5-fluoropyrimidin-2-yl)isoxazole-5-carboxamide], the IC50 lay within 100 to 500 nM. For `CSc1nnc(NC(=O)c2cc(-c3ccns3)no2)s1` [Compound 140, N-[5-(methylsulfanyl)-1,3,4-thiadiazol-2-yl]-3-(1,2-thiazol-5-yl)-1,2-oxazole-5-carboxamide], the IC50 was not below 1000 nM. Consider `CSc1nnc(NC(=O)c2nc(-c3cccs3)oc2C)s1` [Compound 77, 5-methyl-N-(5-(methylthio)-1,3,4-thiadiazol-2-yl)-2-(thiophen-2-yl)oxazole-4-carboxamide], for which the IC50 is not below 1000 nM. With `CSc1nnc(NC(=O)c2nnc(N(C)Cc3ccccc3)o2)s1` [Compound 113, 5-[benzyl(methyl)amino]-N-[5-(methylsulfanyl)-1,3,4-thiadiazol-2-yl]-1,3,4-oxadiazole-2-carboxamide], the IC50 was 500 to 1000 nM.

On to `CSc1nnc(NC(=O)c2nnn3c2ccc2ccccc23)s1` [Compound 190, N-(5-(methylthio)-1,3,4-thiadiazol-2-yl)-[1,2,3]triazolo[1,5-a]quinoline-3-carboxamide], for which the IC50 is not below 1000 nM. Consider `CSc1nnc(NC(=O)c2onc3ccc(C(O)c4ccccc4)cc23)s1` (stereo not drawn) [Compound 166, 5-(hydroxy(phenyl)methyl)-N-(5-(methylthio)-1,3,4-thiadiazol-2-yl)benzo[c]isoxazole-3-carboxamide], for which the concentration for half-maximal inhibition (IC50) was not below 1000 nM. In the case of `O=C(Nc1nnc(-c2ccccc2Cl)s1)c1cc(Nc2ccccc2)cc(=O)o1` [Compound 206, N-[5-(2-chlorophenyl)-1,3,4-thiadiazol-2-yl]-6-oxo-4-(phenylamino) pyran-2-carboxamide] it was less than 100 nM; in that of `CSc1nnc(NC(=O)c2noc(C3CCCCC3)n2)s1` [Compound 263, 5-cyclohexyl-N-(5-(methylthio)-1,3,4-thiadiazol-2-yl)-1,2,4-oxadiazole-3-carboxamide], not below 1000 nM. Regarding `CCc1nnc(NC(=O)c2onc3c2ccc2cccnc23)s1` [Compound 197, N-(5-ethyl-1,3,4-thiadiazol-2-yl)isoxazolo[4,3-h]quinoline-3-carboxamide], the IC50 fell in the range of 100 to 500 nM.

For `CONC(=O)c1cc(C(=O)Nc2nnc(-c3ccccc3Cl)s2)on1` [Compound 91, N5-(5-(2-chlorophenyl)-1,3,4-thiadiazol-2-yl)-N3-methoxyisoxazole-3,5-dicarboxamide], the IC50 was less than 100 nM.

As to `CSc1nnc(NC(=O)c2cncc(-c3ccccn3)c2)s1` [Compound 72, N-(5-(methylthio)-1,3,4-thiadiazol-2-yl)-[2,3′-bipyridine]-5′-carboxamide], the IC50 was not below 1000 nM.

Turning to `O=C(Nc1nnc(-c2cscn2)s1)c1onc2ccccc12` [Compound 127, N-(5-(thiazol-4-yl)-1,3,4-thiadiazol-2-yl)benzo[c]isoxazole-3-carboxamide], the IC50 was 500 to 1000 nM. In the case of `O=C(Nc1nnc(-c2nccs2)s1)c1onc2ccccc12` [Compound 131, N-(5-(thiazol-2-yl)-1,3,4-thiadiazol-2-yl)benzo[c]isoxazole-3-carboxamide] it was 100 to 500 nM; in that of `CSc1nnc(NC(=O)c2onc3c(CO)cccc23)s1` [Compound 168, 7-(hydroxymethyl)-N-(5-(methylthio)-1,3,4-thiadiazol-2-yl)benzo[c]isoxazole-3-carboxamide], 500 to 1000 nM. Turning to `O=C(Nc1nnc(-c2ccccc2Cl)s1)c1cc(-c2ccccc2)cc(=O)o1` [Compound 205, N-[5-(2-chlorophenyl)-1,3,4-thiadiazol-2-yl]-6-oxo-4-phenylpyran-2-carboxamide], the IC50 lay in the range of 100 to 500 nM.
